According to PubChem BioAssay AID1845197 (Molecular Pharmacology Branch, DTP, NCI, 2023):

Tested on: 349418-098-R tumor spheroid viability
Assay: Anticancer human tumor 349418-098-R patient-derived lung adenocarcinoma cell line growth inhibition
Conditions: spheroids with HUVEC and MSC; for IC50: curve of first compound; for viability, T/C: stronger effect = lower value
Description: Multicellular complex tumor spheroid response to DNA repair inhibitors in combination with DNA-damaging drugs
This study explores the anticancer activities of DNA-damaging drugs and inhibitors of DNA damage repair, both as single agents and in combinations. Complex tumor spheroids comprised of malignant cells, endothelial cells and mesenchymal stem cells served as an in vitro model for human solid tumors. This model system incorporates physiologically relevant features and patient-derived or established malignant cell lines with clinically relevant genetic alterations from many tumor types. Twenty-six patient-derived or established malignant cell lines were evaluated representing sarcoma, melanoma, small cell lung cancer (SCLC), non-small cell lung cancer (NSCLC), as well as bladder, ovarian and pancreatic cancers. The concentration ranges selected for each drug and investigational agent were based upon clinically achievable concentrations if the clinical Cmax of the agent was known.
Compounds. The drugs and compounds olaparib (NSC753686), talazoparib (NSC767125), berzosertib (NSC777718), elimusertib (NSC800525), nedisertib (NSC802822), VX-984 (NSC792969), AZD-1390 (NSC803789), temozolomide (NSC362856), topotecan (NSC609699), trabectedin (NSC813783), staurosporine (NSC755774), and gemcitabine (NSC613327) were obtained from the National Cancer Institute (NCI) Developmental Therapeutics Program Chemical Repository. The FDA-approved anticancer drug set is available from the Developmental Therapeutics Program at https://dtp.cancer.gov/organization/dscb/obtaining/available_plates.htm. […] The stock solutions were prepared in dimethyl sulfoxide (DMSO, Sigma-Aldrich, St. Louis, MO, cat. D2650) at 400-fold the tested concentration and stored at -70 degrees C. Prior to their use, the stock solutions were diluted in fresh medium and the final DMSO concentration in the assay was 0.25% (v/v). All drugs and investigational agents were tested over a range starting from a high concentration at or near the clinical Cmax and decreasing in half-log increments. If the clinical Cmax for an agent had not been determined, the highest concentration tested was 10 microM.
Cell Lines. The patient-derived cancer cell (PDC) lines: 156681-154-R-J1-PDC, 283228-195-R-J1-PDC, 287954-098-R-J1-PDC, 292921-168-R-J2-PDC, 349418-098-R-PDC, 425362-245-T-J1-PDC, 556581-035-R-J1-PDC, and BL0293-F563-PDC were received from the NCI Patient-Derived Models Repository (PDMR, https://pdmr.cancer.gov). The established cell lines HS-SY-2 (RRID:CVCL_8719), MPNST, and SYO-1 (RRID:CVCL_7146) were obtained from the Sloan Kettering Institute. The alveolar soft parts sarcoma cell line ASPS-1 (RRID:CVCL_S738) was established at the NCI and grown from internal seed stocks. The following established cell lines were purchased from the American Type Culture Collection (ATCC, Manassas, VA): G-401 (ATCC, cat. CRL-1441, RRID:CVCL_0270), SW982 (ATCC, cat. HTB-93, RRID:CVCL_1734), VA-ES-BJ (ATCC, cat. CRL-2138, RRID:CVCL_1785), NCI-H719 (ATCC, cat. CRL-5837, RRID:CVCL_1582), NCI-H196 (ATCC, cat. CRL-5823, RRID:CVCL_1509), NCI-H841 (ATCC, cat. CRL-5845, RRID:CVCL_1595), NCI-H1618 (ATCC, cat. CRL-5879, RRID:CVCL_1480), NCI-H1876 (ATCC, cat. CRL-5902, RRID:CVCL_1503), DMS 114 (ATCC, cat. CRL-2066; RRID:CVCL_1174), NCI-H211 (ATCC, cat. CRL-5824; RRID:CVCL_1529), and SW 1271 (ATCC, cat. CRL-2177, RRID:CVCL_1716). The small cell lung cancer cell line COR-L88 was purchased from Sigma-Aldrich (cat. 92031917-1VL, RRID:CVCL_1141). The non-small cell lung cancer cell lines NCI-H226 (RRID:CVCL_1544) and NCI-H322M (RRID:CVCL_1557) were established at the NCI and grown from internal seed stocks. Pooled donor human umbilical vein endothelial cells (HUVEC, Lonza, cat. CC-2519) and human mesenchymal stem cells (hMSC, Lonza, cat. PT-2501) were purchased from Lonza (Walkersville, MD).
Cell Culture. All cells were maintained in an incubator at 37 degrees C and 5% CO2 with 95% humidity. […]

[1] = second compound 0.003 µM, first compound 0.00949 µM
[2] = second compound 0.003 µM, first compound 0.03 µM
[3] = second compound 0.003 µM, first compound 0.0949 µM
[4] = second compound 0.003 µM, first compound 0.3 µM
[5] = second compound 0.003 µM, first compound 0.949 µM
[6] = second compound 0.003 µM, first compound 3 µM
[7] = second compound 0.00949 µM, first compound 0.00949 µM
[8] = second compound 0.00949 µM, first compound 0.03 µM
[9] = second compound 0.00949 µM, first compound 0.0949 µM
[10] = second compound 0.00949 µM, first compound 0.3 µM
[11] = second compound 0.00949 µM, first compound 0.949 µM
[12] = second compound 0.00949 µM, first compound 3 µM
[13] = second compound 0.03 µM, first compound 0.00949 µM
[14] = second compound 0.03 µM, first compound 0.03 µM
[15] = second compound 0.03 µM, first compound 0.0949 µM
[16] = second compound 0.03 µM, first compound 0.3 µM
[17] = second compound 0.03 µM, first compound 0.949 µM
[18] = second compound 0.03 µM, first compound 3 µM
[19] = second compound 0.0949 µM, first compound 0.00949 µM
[20] = second compound 0.0949 µM, first compound 0.03 µM
[21] = second compound 0.0949 µM, first compound 0.0949 µM
[22] = second compound 0.0949 µM, first compound 0.3 µM
[23] = second compound 0.0949 µM, first compound 0.949 µM
[24] = second compound 0.0949 µM, first compound 3 µM
[25] = second compound 0.3 µM, first compound 0.00949 µM
[26] = second compound 0.3 µM, first compound 0.03 µM
[27] = second compound 0.3 µM, first compound 0.0949 µM
[28] = second compound 0.3 µM, first compound 0.3 µM
[29] = second compound 0.3 µM, first compound 0.949 µM
[30] = second compound 0.3 µM, first compound 3 µM
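Further: spheroids exposed to compound for 7 days before measurement.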
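Wherever viability, T/C is given: percent of vehicle control viability with 100% = DMSO-treated spheroids.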

SMILES	IC50 (second compound 0.003 µM) [µM]	IC50 (second compound 0.00949 µM) [µM]	IC50 (second compound 0.03 µM) [µM]	IC50 (second compound 0.0949 µM) [µM]	IC50 (second compound 0.3 µM) [µM]	viability, T/C [1] [%]	viability, T/C [2] [%]	viability, T/C [3] [%]	viability, T/C [4] [%]	viability, T/C [5] [%]	viability, T/C [6] [%]	viability, T/C [7] [%]	viability, T/C [8] [%]	viability, T/C [9] [%]	viability, T/C [10] [%]	viability, T/C [11] [%]	viability, T/C [12] [%]	viability, T/C [13] [%]	viability, T/C [14] [%]	viability, T/C [15] [%]	also measured
CNCc1ccc(-c2cc(-c3nc(-c4ccc(S(=O)(=O)C(C)C)cc4)cnc3N)on2)cc1 + CC[C@@]1(O)C(=O)OCc2c1cc1n(c2=O)Cc2cc3c(CN(C)C)c(O)ccc3nc2-1	0.202	0.16	0.147	< 0.00949	< 0.00949	106	96.8	95	26.4	6.42	1.25	103	96.3	78.2	15.9	6.27	0.63	89.1	83.9	74.5	viability, T/C [16]: 10.1%; viability, T/C [17]: 3.96%; viability, T/C [18]: 0.78%; viability, T/C [19]: 25.5%; viability, T/C [20]: 22%; viability, T/C [21]: 12.8%; viability, T/C [22]: 4.56%; viability, T/C [23]: 3.43%; viability, T/C [24]: 0.31%; viability, T/C [25]: 3.32%; viability, T/C [26]: 4.32%; viability, T/C [27]: 3.68%; viability, T/C [28]: 3.02%; viability, T/C [29]: 2.18%; viability, T/C [30]: 0.36%
Cc1sc2c(c1C)C(c1ccc(Cl)cc1)=NC(CC(=O)Nc1ccc(O)cc1)c1nnc(C)n1-2 (stereo not given) + CC[C@@]1(O)C(=O)OCc2c1cc1n(c2=O)Cc2cc3c(CN(C)C)c(O)ccc3nc2-1	0.0714	0.0692	0.0416	< 0.00949	< 0.00949	96.2	83.1	39.1	7.85	0.87	0.47	92.4	78.1	40	6.43	0.61	0.48	77.9	61.7	20.9	viability, T/C [16]: 5.67%; viability, T/C [17]: 0.64%; viability, T/C [18]: 0.38%; viability, T/C [19]: 12.6%; viability, T/C [20]: 16.2%; viability, T/C [21]: 4.16%; viability, T/C [22]: 1.07%; viability, T/C [23]: 0.3%; viability, T/C [24]: 0.35%; viability, T/C [25]: 2.78%; viability, T/C [26]: 2.56%; viability, T/C [27]: 1.45%; viability, T/C [28]: 0.63%; viability, T/C [29]: 0.55%; viability, T/C [30]: 0.39%
